Results published in US20040176468A1 (Wyeth, priority 1999, published 2004).
Where a name gives a salt, the structure may show the parent alone.

Target: NE uptake (Rattus norvegicus, UniProt Q63380)
Assay: Neurotransmitter uptake inhibition: NE uptake, crude synaptosomal preparation
Assay type: biochemical
Details: rat cortex crude synaptosomal preparation; for IC50: 0.1 μM 3H-NE, 37° C. for 6 minutes
Method: Male Sprague-Dawley rats (180-260 g, Charles River) were used in all neurochemical assays. Rats were housed in temperature-controlled quarters on a 12 hr light/12 hr dark cycle with free access to food and water.
Neurotransmitter Uptake Inhibition
Uptake experiments were performed using a crude synaptosomal preparation made from the brain tissue of adult male Sprague-Dawley rats. The cortex of 1 rat for NE and 5-HT uptake was removed on ice and homogenized in 20 volumes of 0.32 M sucrose/g tissue weight using a Potter-Elvehjem teflon homogenizer (3 strokes at 840 rpm). The homogenate was then centrifuged for 12 minutes at 1,000×g at 0-4° C. The resulting supernatant was decanted into a chilled glass beaker and kept on ice until assayed. Protein concentration was determined by the method of Lowry et al. (1).
For these experiments, all compounds were run in duplicate in concentrations of 0.003-30.0 μM. Each tube received buffer (790 μl in drug tubes, 800 μl in control tubes), 10 μl of drug or standard. (0.1 μM DMI for NE uptake and 3.0 μM zimelidine HCl for 5-HT uptake), 100 μl isotope (0.1 μM ^3H—NE and 0.05 μM ^14C-5-HT), and 100 μl tissue. Tubes were incubated at 37° C. for 6 minutes. Incubation was terminated by the addition of 2.5 ml buffer followed by vacuum filtration using a Brandel filtration manifold with Whatman GF/B glass fiber filters and a second wash with 2.5 ml buffer. Filters were added to 10 ml Hydrofluor, shaken for 15 minutes and counted in a Packard 460CD scintillation counter equipped with dual-label dpm data reduction. Results were expressed as pmol uptake/mg protein/min.

Sequence of NE uptake (Q63380 1-617): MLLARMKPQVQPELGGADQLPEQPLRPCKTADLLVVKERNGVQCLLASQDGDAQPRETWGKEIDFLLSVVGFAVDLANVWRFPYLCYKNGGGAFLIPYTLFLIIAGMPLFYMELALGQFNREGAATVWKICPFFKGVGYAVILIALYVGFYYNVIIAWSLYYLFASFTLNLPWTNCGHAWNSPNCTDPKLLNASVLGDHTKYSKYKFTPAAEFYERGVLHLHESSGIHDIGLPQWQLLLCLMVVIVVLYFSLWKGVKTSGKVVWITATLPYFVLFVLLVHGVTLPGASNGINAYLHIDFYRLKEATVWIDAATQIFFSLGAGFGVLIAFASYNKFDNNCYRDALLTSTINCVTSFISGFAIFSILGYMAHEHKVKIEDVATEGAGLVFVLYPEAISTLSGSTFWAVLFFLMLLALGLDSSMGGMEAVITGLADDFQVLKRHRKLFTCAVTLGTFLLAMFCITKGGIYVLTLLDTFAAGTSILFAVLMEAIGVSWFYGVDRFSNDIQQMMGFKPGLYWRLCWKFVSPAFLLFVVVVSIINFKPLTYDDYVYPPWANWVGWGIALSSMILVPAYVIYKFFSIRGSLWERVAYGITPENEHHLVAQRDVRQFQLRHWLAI

| inhibition at 0.3 µM (at 0.3 μM) | IC50 | SMILES |
| --- | --- | --- |
| 75% | – | CN(C)CC(c1ccc(O)cc1)C1(O)CCCCC1 (racemic) [O-Desmethyl venlafaxine, 4-[1-(2-dimethylamino)-2-(1-hydroxycyclohexyl)-ethyl]-phenol] |
| – | 720 nM | CN(C)C[C@H](c1ccc(O)cc1)C1(O)CCCCC1 [(+)O-Desmethyl venlafaxine, S (+)-4-[2-(Dimethylamino)-1-(1-hydroxycyclohexyl)ethyl]phenol fumarate hydrate salt] |
| – | 270 nM | CN(C)C[C@@H](c1ccc(O)cc1)C1(O)CCCCC1 [(−)O-Desmethyl venlafaxine, R(−)-4-[2-(Dimethylamino)-1-(1-hydroxycyclohexyl)ethyl]phenol fumarate hydrate salt] |
